Source: patent EP0908457B1, “3-(1,2-benzisothiazol- and isoxazol-5-Y1)-2,4(1H,3H)-pyrimidinedione or thione and 3-(1,2-benzisothiazol- and isoxazol-5-y1)-4(3H)-pyrimidinone or thione herbicidal agents” (BASF AKTIENGESELLSCHAFT, priority 1997, dated 1999)

Legend:
[1] = test system: Monochoria vaginalis, Presl.; test: Preemergence weed control under flooded paddy conditions, MOOVA (Monochoria); type: in vivo; settings: flooded paddy, rated three to four weeks after treatment; for MOOVA herbicidal effect rating: preemergence; for herbicidal effect rating, MOOVA: preemergence weeds; on herbicidal effect rating, MOOVA: meaning of each grade not given here
Sagittaria pygmaea, L. = test: Preemergence weed control under flooded paddy conditions, SAGPY (Arrowhead (Pygmaea)); type: in vivo; settings: flooded paddy, rated three to four weeks after treatment; for SAGPY herbicidal effect rating: preemergence; for herbicidal effect rating, SAGPY: preemergence weeds; on herbicidal effect rating, SAGPY: meaning of each grade not given here
[2] = test system: Oryza sativa, (L.) Tebonnet; test: Rice tolerance to post-transplant applications under flooded paddy conditions (Example 187), ORYSAT (Rice, Tebonnet); settings: rated three to four weeks after treatment
[3] = test system: Echinochloa oryzoides (Ard.) Fritsch.; test: Preemergence weed control under flooded paddy conditions, ECHORC (Watergrass (Calif.)); type: in vivo; settings: flooded paddy, rated three to four weeks after treatment; for ECHORC herbicidal effect rating: preemergence; for herbicidal effect rating, ECHORC: preemergence weeds; on herbicidal effect rating, ECHORC: meaning of each grade not given here
Cyperus iria = test: Preemergence weed control under flooded paddy conditions, CYPIR (Rice Flatsedge); type: in vivo; settings: flooded paddy, rated three to four weeks after treatment; for CYPIR herbicidal effect rating: preemergence; for herbicidal effect rating, CYPIR: preemergence weeds; on herbicidal effect rating, CYPIR: meaning of each grade not given here
[4] = test system: Cyperus serotinus, Rottb.; test: Preemergence weed control under flooded paddy conditions, CYPSE (Flatsedge); type: in vivo; settings: rated three to four weeks after treatment; for CYPSE herbicidal effect rating: preemergence; for herbicidal effect rating, CYPSE: preemergence weeds; on herbicidal effect rating, CYPSE: meaning of each grade not given here

Cn1c(C(F)(F)F)cc(=O)n(-c2ccc3snc(/C=N/O)c3c2)c1=O [Example 278, 1,2-Benzisothiazole-3-carboxaldehyde, 5-[3,6-dihydro-3-methyl-2,6-dioxo-4-(trifluoromethyl)-1(2H)-pyrimidinyl]-, 3-oxime, (E)-]
9.0: MOOVA herbicidal effect rating ([1]; Rate 0.1250 kg/ha) | MOOVA herbicidal effect rating ([1]; Rate 0.2500 kg/ha) | MOOVA herbicidal effect rating ([1]; Rate 0.5000 kg/ha) | SAGPY herbicidal effect rating (Sagittaria pygmaea, L.; Rate 0.5000 kg/ha) | ECHORC herbicidal effect rating ([3]; Rate 0.5000 kg/ha) | CYPIR herbicidal effect rating (Cyperus iria; Rate 0.2500 kg/ha) | CYPIR herbicidal effect rating (Cyperus iria; Rate 0.5000 kg/ha) | CYPSE herbicidal effect rating ([4]; Rate 0.5000 kg/ha)
2.0: SAGPY herbicidal effect rating (Sagittaria pygmaea, L.; Rate 0.2500 kg/ha) | ORYSAT herbicidal effect rating ([2]; Rate 0.0320 kg/ha) | CYPIR herbicidal effect rating (Cyperus iria; Rate 0.0620 kg/ha) | CYPSE herbicidal effect rating ([4]; Rate 0.1250 kg/ha)
6.1: ECHORC herbicidal effect rating ([3]; Rate 0.0620 kg/ha)
7.4: ECHORC herbicidal effect rating ([3]; Rate 0.1250 kg/ha)
3.0: ORYSAT herbicidal effect rating ([2]; Rate 0.0620 kg/ha)
0.0: SAGPY herbicidal effect rating (Sagittaria pygmaea, L.; Rate 0.0320 kg/ha) | SAGPY herbicidal effect rating (Sagittaria pygmaea, L.; Rate 0.0620 kg/ha) | SAGPY herbicidal effect rating (Sagittaria pygmaea, L.; Rate 0.1250 kg/ha) | ECHORC herbicidal effect rating ([3]; Rate 0.0320 kg/ha) | CYPIR herbicidal effect rating (Cyperus iria; Rate 0.0320 kg/ha) | CYPSE herbicidal effect rating ([4]; Rate 0.0320 kg/ha) | CYPSE herbicidal effect rating ([4]; Rate 0.0620 kg/ha)
4.0: ORYSAT herbicidal effect rating ([2]; Rate 0.1250 kg/ha) | CYPSE herbicidal effect rating ([4]; Rate 0.2500 kg/ha)
7.0: ORYSAT herbicidal effect rating ([2]; Rate 0.2500 kg/ha) | CYPIR herbicidal effect rating (Cyperus iria; Rate 0.1250 kg/ha)
6.0: MOOVA herbicidal effect rating ([1]; Rate 0.0320 kg/ha)
8.0: MOOVA herbicidal effect rating ([1]; Rate 0.0620 kg/ha) | ORYSAT herbicidal effect rating ([2]; Rate 0.5000 kg/ha) | ECHORC herbicidal effect rating ([3]; Rate 0.2500 kg/ha)

Cc1ccc(S(=O)(=O)NC(=O)COc2ccc(C)cc2-c2nsc3ccc(-n4c(=O)cc(C(F)(F)F)n(C)c4=O)cc23)cc1 [Example 122, N-{{{2-{5-[3,6-Dihydro-3-methyl-2,6-dioxo-4-(trifluoromethyl)-1(2H)-pyrimidinyl]-1,2-benzisothiazol-3-yl}-p-tolyl}oxy}acetyl}-p-toluenesulfonamide]
3.0: herbicidal effect rating, ORYSAT (rice tolerance) ([2]; 0.0625 kg/ha)
8.0: herbicidal effect rating, MOOVA ([1]; 0.0625 kg/ha) | herbicidal effect rating, ECHORC ([3]; 0.1250 kg/ha)
4.0: herbicidal effect rating, ORYSAT (rice tolerance) ([2]; 0.1250 kg/ha) | herbicidal effect rating, ORYSAT (rice tolerance) ([2]; 0.2500 kg/ha) | herbicidal effect rating, ECHORC ([3]; 0.0313 kg/ha)
2.0: herbicidal effect rating, ORYSAT (rice tolerance) ([2]; 0.0313 kg/ha)
0.0: herbicidal effect rating, SAGPY (Sagittaria pygmaea, L.; 0.0313 kg/ha) | herbicidal effect rating, SAGPY (Sagittaria pygmaea, L.; 0.0625 kg/ha) | herbicidal effect rating, SAGPY (Sagittaria pygmaea, L.; 0.1250 kg/ha) | herbicidal effect rating, SAGPY (Sagittaria pygmaea, L.; 0.2500 kg/ha) | herbicidal effect rating, CYPIR (Cyperus iria; 0.0313 kg/ha) | herbicidal effect rating, CYPIR (Cyperus iria; 0.0625 kg/ha) | herbicidal effect rating, CYPIR (Cyperus iria; 0.1250 kg/ha) | herbicidal effect rating, CYPIR (Cyperus iria; 0.2500 kg/ha) | herbicidal effect rating, CYPSE ([4]; 0.0313 kg/ha) | herbicidal effect rating, CYPSE ([4]; 0.0625 kg/ha) | herbicidal effect rating, CYPSE ([4]; 0.1250 kg/ha) | herbicidal effect rating, CYPSE ([4]; 0.2500 kg/ha)
6.0: herbicidal effect rating, MOOVA ([1]; 0.0313 kg/ha)
7.0: herbicidal effect rating, ECHORC ([3]; 0.0625 kg/ha)
9.0: herbicidal effect rating, MOOVA ([1]; 0.1250 kg/ha) | herbicidal effect rating, MOOVA ([1]; 0.2500 kg/ha) | herbicidal effect rating, ECHORC ([3]; 0.2500 kg/ha)

CC(=O)/C=C/c1nsc2ccc(-n3c(=O)cc(C(F)(F)F)n(C)c3=O)cc12 [Example 285, 2,4(1H,3H)-Pyrimidinedione, 1-methyl-3-[3-(3-oxo-1-butenyl)-1,2-benzisothiazol-5-yl]-6-(trifluoromethyl)-, (E)-]
7.0: ORYSAT herbicidal effect rating ([2]; Rate 0.0620 kg/ha) | ORYSAT herbicidal effect rating ([2]; Rate 0.1250 kg/ha) | ORYSAT herbicidal effect rating ([2]; Rate 0.2500 kg/ha) | ECHORC herbicidal effect rating ([3]; Rate 0.0620 kg/ha) | ECHORC herbicidal effect rating ([3]; Rate 0.1250 kg/ha) | ECHORC herbicidal effect rating ([3]; Rate 0.2500 kg/ha)
0.0: SAGPY herbicidal effect rating (Sagittaria pygmaea, L.; Rate 0.0320 kg/ha) | SAGPY herbicidal effect rating (Sagittaria pygmaea, L.; Rate 0.0620 kg/ha) | SAGPY herbicidal effect rating (Sagittaria pygmaea, L.; Rate 0.1250 kg/ha) | CYPSE herbicidal effect rating ([4]; Rate 0.0320 kg/ha) | CYPSE herbicidal effect rating ([4]; Rate 0.0620 kg/ha) | CYPSE herbicidal effect rating ([4]; Rate 0.1250 kg/ha) | CYPSE herbicidal effect rating ([4]; Rate 0.2500 kg/ha)
5.0: CYPIR herbicidal effect rating (Cyperus iria; Rate 0.0320 kg/ha)
9.0: MOOVA herbicidal effect rating ([1]; Rate 0.0620 kg/ha) | MOOVA herbicidal effect rating ([1]; Rate 0.1250 kg/ha) | MOOVA herbicidal effect rating ([1]; Rate 0.2500 kg/ha) | CYPIR herbicidal effect rating (Cyperus iria; Rate 0.0620 kg/ha) | CYPIR herbicidal effect rating (Cyperus iria; Rate 0.1250 kg/ha) | CYPIR herbicidal effect rating (Cyperus iria; Rate 0.2500 kg/ha)
4.0: MOOVA herbicidal effect rating ([1]; Rate 0.0320 kg/ha)
3.0: SAGPY herbicidal effect rating (Sagittaria pygmaea, L.; Rate 0.2500 kg/ha) | ORYSAT herbicidal effect rating ([2]; Rate 0.0320 kg/ha) | ECHORC herbicidal effect rating ([3]; Rate 0.0320 kg/ha)
